{"source": "patent US7560473B2", "about": "(Institute of Pharmacology and Toxicology Academy of …, priority 2001, dated 2009)", "key": {"[1]": {"system": "outward potassium currents of rat tail arterial SMCs", "test": "Whole cell recording of outward potassium currents in rat tail arterial SMCs", "type": "cell-based, Wistar rats", "details": "outward potassium current amplitude before compound application, same cells; X ± SD n = 5", "from_the_text": "Biological activity experiments 6. The effects of novel compounds on potassium currents in isolated arterial vascular smooth muscle cells (SMCs).\nThe outward currents were, elicited in rat tail arterial SMCs by superfusing extracellular solution under whole cell recording configuration that the depolarizing pulse were applied from −30 mV to +100 mV with the holding potential of −40 mV in 100 ms, 10 mV clamp steps, a frequency of 5 KHz. The compounds were applied in the bath at the concentrations of 100 μmol L^−1. The amplitude of the outward potassium currents was recorded before and after compound application Values were expressed as means±SD. Statistical significance between two groups was evaluated by student's t-test for paired data * P<0.05 **P<0.01 vs control.\n1. Preparation of single smooth muscle cells from rat tail arteries: Male Wistar rats (200-250 g) were killed by exsanguination. The tail artery was dissected out and transferred into cold physiological salt solution (PSS) of the following composition (in mM): NaCl 118.3, KCl 4.7, KH2PO4 1.2, MgSO4 1.2, NaHCO3 25.0, CaCl2 2.5, EDTA 0.026 and Glucose 5.0 pH7.4. With the use of a dissecting microscope, the connective tissues were removed and the artery was cut open longitudinally. Endothelium was removed carefully with a cotton swab then the artery was cut into segments with 1 mm long and placed in 4° C. the extracellular solution containing (in mM) NaCl 130, KCl 5, MgCl2 1.2, HEPES 10, Glucose 10, pH7.2 for 20 min. After this incubation, the medium was changed to enzyme solution which was composed of collagenase I (1 mg ml^−1), papain (5 mg ml^−) and bovine serum albumin (2 mg ml^−1). The tissues, were incubated in this solution for 40 min, and then rinsed three times triturated using a fire-polished Pasteur pipette until the medium turned cloudily. The cell suspension was stored in the refrigerator at 4° C.\n3. Whole cell recordings: A bath dish with the smooth muscle cells (SMCs) attached and superfused with the extracellular solution at a flow rate of 2 ml min^−1 was mounted onto the stage of an inverted-phase contrast microscope. The microelectrodes having a resistance of (5-8 MΩ) were made from boroscilicate thin-wall glass capillaries, using an automatic multiple-stage, electronic puller (PP830 Japan) and then heat-polished. After establishing a high resistance seal, the patch membrane was disrupted by negative pressure. A commercial patch clamp amplifier (Axon 200B) was used to generate and apply voltages and sample current signals from the cell."}, "[2]": {"system": "outward potassium currents in smooth muscle cells derived from intrapulmonary arteries", "test": "Whole cell recording of outward potassium currents in intrapulmonary arterial SMCs and glibenclamide antagonism", "type": "cell-based, Wistar rats", "description": "Effects of Compound 1 on Potassium Currents in Isolated Intrapulmonary arterial SMCs and Glibenclamide Antagonism\nThe outward potassium currents were recorded in smooth muscle cells derived from intrapulmonary arteries of normotensive rats. Cells were sealed, clamped at −70 mV and depolarized to +50 mV at an increasing step of 10 mV with 100 ms duration. After application of compound 1 at the concentration of 10 μmol L^−1, the amplitude of the currents in 5/8 cells was increased to 115.4±2.8% compared with control recorded before compound application (P<0.01 n=5). While in the presence of both compound 1 and glibenclamide at the concentration of 10 μmol L^−1 and 30 μmol L^−1 respectively, the amplitude of the outward potassium currents in 7/7 cells was detected to be 83.1±8.3% of control, which was decreased compared with the presence of compound 1 only (P<0.01 n=7).\n2. Preparation of smooth muscle cells from intrapulmonary arteries: Male Wistar rats were killed by decapitation. The intrapulmonary arteries were isolated and moved quickly into physiological salt solutions (PSS, 4° C.) Then the arteries were cut longitudinally and cut into small segments after scraping off the endothelium gently with a cotton swab. The fragments were then incubated at 37° C. in Ca^2+-free PSS for 20 to 30 minutes. […]"}, "[3]": {"system": "SHRsp", "test": "Prophylaxis and treatment of SHRsp cerebral apoplexy", "type": "in vivo, rats", "details": "for Survival time: control 4.6 ± 3.8; for Survival time / Period needed for onset of cerebral apoplexy: means ± SD; for Period needed for onset of cerebral apoplexy: control 48.3 ± 7.4; for Death rate of cerebral apoplexy / Rate of cerebral apoplexy: n 12; for Death rate of cerebral apoplexy: control 50.0; for Rate of cerebral apoplexy: control 83.3", "description": "Biological activity experiment 8 the prophylaxis and treatment of cerebral apoplexy with compound 1 of formula Ia\nThe methods of biological activity experiments were carried out as follows: Desired concentration of compound 1 was prepared with distilled water, while desired concentration of nimodipine was prepared with market available Jinglongyu^T oil. 30 male and 30 female SHRsp (10 weeks old, 120-180 g) were purchased from the vascular disease research center of Academy of Military Medical Science. All SHRsp were divided randomly into five groups based on blood pressure, body weight and sex: control group (fed with equal amount of Jinglongyu^T oil), […], […], […], and 4.0 mg.kg^−1d^−1 nimodipine treated group. Each group contained 12 animals and 4-5 animals were fed in a cage. The feedstaff (containing 23-24% protein) was purchased from experimental animal center of Academy of Military Medical Science. The animals were fed with tap water containing 1% NaCl to accelerate the onset of cerebral apoplexy. 12 normal WKY rats (with the same age and sex with the above) were selected as control, and fed with tap water and the same feedstuff. When reached 11 weeks old, the animals were fed with drugs for experiments."}}, "note": "Marks after values point to notes of the source that are not given here."}
{"smiles": "CC(C)NC(C)(C)C(C)C", "note": "[compound 1, N-(1-methylethyl)-2,3-dimethyl-2-butylamine]", "values": [{"measurement": "Currents, Control (before compound application)", "setting": "[1]", "result": "0.41 ± 0.08", "unit": "nA"}, {"measurement": "amplitude of the outward potassium currents compared with control", "setting": "[2]; compound 1 10 μmol L^−1, 5/8 cells, n=5", "result": "115.4±2.8", "unit": "%"}, {"measurement": "amplitude of the outward potassium currents, of control", "setting": "[2]; compound 1 10 μmol L^−1 in the presence of glibenclamide 30 μmol L^−1, 7/7 cells, n=7", "result": "83.1±8.3", "unit": "%"}, {"measurement": "Survival time", "setting": "[3]; 0.25 mg · kg^−1d^−1 fed", "result": "7.2 ± 5.3", "unit": "days"}, {"measurement": "Period needed for onset of cerebral apoplexy", "setting": "[3]; 0.25 mg · kg^−1d^−1 fed", "result": "58.6 ± 14.1", "unit": "days"}, {"measurement": "Death rate of cerebral apoplexy", "setting": "[3]; 0.25 mg · kg^−1d^−1 fed", "result": 27.3, "unit": "%"}, {"measurement": "Rate of cerebral apoplexy", "setting": "[3]; 0.25 mg · kg^−1d^−1 fed", "result": 72.7, "unit": "%"}, {"measurement": "Survival time", "setting": "[3]; 1 mg · kg^−1d^−1 fed", "result": "10.2 ± 4.1", "unit": "days"}, {"measurement": "Period needed for onset of cerebral apoplexy", "setting": "[3]; 1 mg · kg^−1d^−1 fed", "result": "60.8 ± 18.9", "unit": "days"}, {"measurement": "Death rate of cerebral apoplexy", "setting": "[3]; 1 mg · kg^−1d^−1 fed", "result": 20.0, "unit": "%"}, {"measurement": "Rate of cerebral apoplexy", "setting": "[3]; 1 mg · kg^−1d^−1 fed", "result": "40.0* %"}, {"measurement": "Survival time", "setting": "[3]; 4 mg · kg^−1d^−1 fed", "result": "11.8 ± 3.2", "unit": "days"}, {"measurement": "Period needed for onset of cerebral apoplexy", "setting": "[3]; 4 mg · kg^−1d^−1 fed", "result": "68.6 ± 16.5", "unit": "days"}, {"measurement": "Death rate of cerebral apoplexy", "setting": "[3]; 4 mg · kg^−1d^−1 fed", "result": "8.3* %"}, {"measurement": "Rate of cerebral apoplexy", "setting": "[3]; 4 mg · kg^−1d^−1 fed", "result": "33.3* %"}, {"measurement": "nerve symptom of cerebral apoplexy (in words)", "setting": "[3]; SHRsp", "result": "significantly improve the nerve symptom"}]}
